Measured values taken from patent publication US11827628B2, “Compositions and methods for inhibition of the JAK pathway” (Rigel Pharmaceuticals, Inc., priority 2005, dated 2023).

Tests used:
[1] = tested on: up-regulation of ICAM-1 (CD54) by IFNγ in U937 human monocytic cells; test: U937 IFNγ ICAM1 FACS Assay; format: cell-based; settings: U937 cells stimulated with IFNγ; ICAM-1 expression by FACS; read-out: IC50, Example 44
Outline: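 Readout was the geometric-mean APC anti-ICAM-1 signal by FACS on live U937 monocytic cells, with % live cells also recorded. Cells were exposed to compounds (8 points, 3-fold dilutions, duplicates) for 30 min at 37 °C before 18–24 h of IFNγ stimulation. EC50 values were computed from the dose curve.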

[2] = tested on: IL-4 stimulated expression of CD23 in human Ramos B cells (JAK-1 and JAK-3); test: Assay for Ramos B-Cell Line Stimulated with IL-4 (CD23 upregulation, FACS); format: cell-based; settings: Ramos B-cell line stimulated with IL-4; CD23 expression by FACS; read-out: IC50, Example 41
Outline: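 Human Ramos B cells (5×10^4 per point, RPMI 5% serum) pre-incubated 1 h at 37 °C with compound or DMSO, then stimulated with IL-4 at 50 units/mL final for 20-24 h. CD23 upregulation measured by anti-CD23-PE staining and flow cytometry; IC50 derived.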

Molecule	IC50 [1]	IC50 [2]
Cc1nc(COc2ccc(Nc3nc(Nc4ccc(S(N)(=O)=O)cc4)ncc3F)cc2)cs1 [Compound I-285, N2-(4-Aminosulfonylphenyl)-5-fluoro-N4-[4-(2-methylthiazol-4-yl)methyleneoxyphenyl]-2,4-pyrimidinediamine]	1480 nM	133 nM
N#CCOc1ccc(Nc2nc(Nc3ccc(Cl)c(S(N)(=O)=O)c3)ncc2F)cc1 [Compound I-21, N2-(3-Aminosulfonyl-4-chlorophenyl)-N4-(4-cyanomethoxy)phenyl-5-fluoro-2,4-pyrimidinediamine]	822 nM	93 nM
Cc1ccc(Nc2ncc(F)c(Nc3cccc(OC4CCCN(C)C4)c3)n2)cc1S(N)(=O)=O (racemic) [II-1, Racemic N2-(3-aminosulfonyl-4-methylphenyl)-5-fluoro-N4-{3-[(1-methylpiperidin-3-yl)oxy]phenyl}-2,4-pyrimidinediamine]	8330 nM	182 nM
CNS(=O)(=O)c1cc(Nc2ncc(F)c(Nc3ccc(OCc4csc(C)n4)cc3)n2)ccc1C [Compound I-282, 5-Fluoro-N2-[3-(N-methylaminosulfony)-4-methylphenyl]-N4-[4-(2-methylthiazol-4-yl)methyleneoxyphenyl]-2,4-pyrimidinediamine]	3100 nM	339 nM
5-Fluoro-N4-[4-(3-methyl-1,2,4-oxadiazol-3-yl)methyleneoxyphenyl]-N2-[(3-N-propanamido)sulfonylphenyl)]-2,4-pyrimidinediamine [Compound I-262]	1040 nM	78.3 nM
Cc1ccc(Nc2ncc(F)c(Nc3ccc(OC4CCCN(C)C4)cc3)n2)cc1S(N)(=O)=O (racemic) [II-4, Racemic N2-(3-aminosulfonyl-4-methylphenyl)-5-fluoro-N4-{4-[(1-methylpiperidin-3-yl)oxy]phenyl}-2,4-pyrimidinediamine]	3510 nM	316 nM
Cc1nc(COc2ccc(Nc3nc(Nc4cccc(S(N)(=O)=O)c4)ncc3F)cc2)cs1 [Compound I-281, N2-(3-Aminosulfonylphenyl)-5-fluoro-N4-[4-(2-methylthiazol-4-yl)methyleneoxyphenyl]-2,4-pyrimidinediamine]	975 nM	93.2 nM
CNS(=O)(=O)c1cc(Nc2ncc(F)c(Nc3ccc(OCc4cc(C)on4)cc3)n2)ccc1C [Compound I-235, 5-Fluoro-N2-[3-(N-methyl)aminosulfonyl-4-methylphenyl]-N4-[4-(5-methylisoxazol-3-yl)methyleneoxyphenyl]-2,4-pyrimidinediamine]	2560 nM	178 nM
CCN(CC)CCNS(=O)(=O)c1ccc(Nc2ncc(F)c(Nc3ccc(OCc4nc(C)no4)cc3)n2)cc1 [Compound I-263, N2-[4-(2-N,N-Diethylaminoethyl)aminosulfonylphenyl)-5-fluoro-N4-[4-(3-methyl-1,2,4-oxadiazol-5-yl)methyleneoxyphenyl]-2,4-pyrimidinediamine]	665 nM	124 nM
Cc1cc(COc2ccc(Nc3nc(Nc4ccc(C)c(S(N)(=O)=O)c4)ncc3F)cc2C)no1 [Compound I-234, N2-(3-Aminosulfonyl-4-methylphenyl)-5-fluoro-N4-[3-methyl-4-(5-methylisoxazol-3-yl)methyleneoxyphenyl]-2,4-pyrimidinediamine]	2020 nM	102 nM
Cc1cc(COc2ccc(Nc3nc(Nc4cc(Cl)c(C)c(S(N)(=O)=O)c4)ncc3F)cc2C)no1 [Compound I-216, N2-(3-Aminosulfonyl-5-chloro-4-methylphenyl)-5-fluoro-N4-[3-methyl-4-(5-methylisoxazol-3-yl)methyleneoxyphenyl]-2,4-pyrimidinediamine]	1570 nM	205 nM
Cc1noc(COc2cccc(Nc3nc(Nc4cccc(S(N)(=O)=O)c4)ncc3F)c2)n1 [Compound I-252, N2-(3-Aminosulfonylphenyl)-5-fluoro-N4-[3-(3-methyl-1,2,4-oxadiazol-5-yl)methyleneoxyphenyl]-2,4-pyrimidinediamine]	2470 nM	90.6 nM
Cc1noc(COc2ccc(Nc3nc(Nc4ccc(S(N)(=O)=O)cc4)ncc3F)cc2)n1 [Compound I-231, N2-(4-Aminosulfonylphenyl)-5-fluoro-N4-[4-(3-methyl-1,2,4-oxadiazol-5-yl)methyleneoxyphenyl]-2,4-pyrimidinediamine]	8400 nM	94.7 nM
CCN(CC)CCNS(=O)(=O)c1cccc(Nc2ncc(F)c(Nc3ccc(OCc4csc(C)n4)cc3)n2)c1 [Compound I-283, N2-[3-(2-N,N-Diethylaminoethyl)aminosulfonylphenyl)-5-fluoro-N4-[4-(2-methylthizol-4-yl)methyleneoxyphenyl]-2,4-pyrimidinediamine]	2940 nM	518 nM
CCN(CC)CCNS(=O)(=O)c1cccc(Nc2ncc(F)c(Nc3ccc(OCc4cc(C)on4)cc3)n2)c1 [Compound I-241, N2-[3-(2-N,N-Diethylaminoethyl)aminosulfonylphenyl)-5-fluoro-N4-[4-(5-methylisoxazol-3-yl)methyleneoxyphenyl]-2,4-pyrimidinediamine]	2870 nM	266 nM
CCN(CC)CCNS(=O)(=O)c1ccc(Nc2ncc(F)c(Nc3ccc(OCc4cc(C)on4)cc3)n2)cc1 [Compound I-246, N2-[4-(2-N,N-Diethylaminoethyl)aminosulfonylphenyl)-5-fluoro-N4-[4-(5-methylisoxazol-3-yl)methyleneoxyphenyl]-2,4-pyrimidinediamine]	873 nM	106 nM
CNS(=O)(=O)c1cc(Nc2ncc(F)c(Nc3ccc(OCc4nc(C)no4)cc3)n2)ccc1C [Compound I-260, 5-Fluoro-N2-[3-N-(methyl)aminosulfonyl-4-methylphenyl)-N4-[4-(3-methyl-1,2,4-oxadiazol-5-yl)methyleneoxyphenyl]-2,4-pyrimidinediamine]	985 nM	94.8 nM
CN1CCC(Oc2ccc(Nc3nc(Nc4cccc(S(N)(=O)=O)c4)ncc3F)cc2)C1 (stereo not drawn) [II-9, N2-(3-Aminosulfonylphenyl)-5-fluoro-N4-(N-methylpyrrolidin-3-yloxyphenyl)-2,4-pyrimidinediamine]	2720 nM	232 nM
Cc1noc(COc2cccc(Nc3nc(Nc4ccc(C)c(S(N)(=O)=O)c4)ncc3F)c2)n1 [Compound I-254, N2-(3-Aminosulfonyl-4-methylphenyl)-5-fluoro-N4-[3-(3-methyl-1,2,4-oxadiazol-5-yl)methyleneoxyphenyl]-2,4-pyrimidinediamine]	1820 nM	155 nM
Cc1cc(COc2ccc(Nc3nc(Nc4ccc(C)c(S(N)(=O)=O)c4)ncc3F)cc2Cl)no1 [Compound I-221, N2-(3-Aminosulfonyl-4-methylphenyl)-N4-[3-chloro-4-(5-methylisoxazol-3-yl)methyleneoxyphenyl]-5-fluoro-2,4-pyrimidinediamine]	4440 nM	344 nM
Cc1cc(Nc2nc(Nc3ccc(S(N)(=O)=O)cc3)ncc2F)cc(C)c1OCC#N [Compound I-25, N2-(4-Aminosulfonyl)phenyl-N4-(4-cyanomethoxy-3,5-dimethyl)phenyl-5-fluoro-2,4-pyrimidinediamine]		55.8 nM

Next, values leading:

IC50 [1]	IC50 [2]	Molecule
1120 nM	151 nM	CNS(=O)(=O)c1cc(Nc2ncc(F)c(Nc3ccc(CC#N)cc3)n2)ccc1C [III-1, 5-Fluoro-N2-[3-(N-methylaminosulfony)-4-methylphenyl]-5-fluoro-N4-(4-cyanomethylphenyl)-2,4-pyrimidinediamine]
6720 nM	224 nM	CCN(CC)CCNS(=O)(=O)c1ccc(Nc2ncc(F)c(Nc3ccc(CC#N)cc3)n2)cc1 [III-2, N2-[4-(2-N,N-Diethylaminoethyl)aminosulfonylphenyl)-5-fluoro-N4-(4-cyanomethylphenyl)-2,4-pyrimidinediamine]
3520 nM	225 nM	N#CCc1ccc(Nc2nc(Nc3ccc(F)c(S(N)(=O)=O)c3)ncc2F)cc1 [III-10, N2-(3-Aminosulfonyl-4-fluoro)phenyl-N4-(4-cyanomethyl)phenyl-5-fluoro-2,4-pyrimidinediamine]
6980 nM	215 nM	COc1cc(Nc2ncc(F)c(Nc3ccc(CC#N)cc3)n2)ccc1S(N)(=O)=O [III-9, N2-(4-Aminosulfonyl-3-methoxy)phenyl-N4-(4-cyanomethyl)phenyl-5-fluoro-2,4-pyrimidinediamine]
553 nM	76 nM	Cc1ccc(Nc2ncc(F)c(Nc3ccc(CCC#N)cc3)n2)cc1S(N)(=O)=O [III-15, N2-(3-Aminosulfonyl-4-methylphenyl)-N4-[4-(cyanoethylene)phenyl]-5-fluoro-2,4-pyrimidinediamine]
1120 nM	134 nM	Cc1ccc(Nc2ncc(F)c(Nc3cccc(CNC(=O)C4CC4)c3)n2)cc1S(N)(=O)=O [III-40, N2-(3-aminosulfonyl-4-methyl)phenyl-N4-(3-cyclopropylcarbonylaminomethyl)phenyl-5-fluoro-2,4-pyrimidinediamine]
257 nM	58.3 nM	Cc1cnc(Nc2ccc(S(N)(=O)=O)cc2)nc1Nc1ccc(CCC#N)cc1 [III-27, N2-(4-Aminosulfonylphenyl)-N4-(4-cyanoethylenephenyl)-5-methyl-2,4-pyrimidinediamine]
1720 nM	18.7 nM	N#CCc1ccc(Nc2nc(Nc3cccc(S(N)(=O)=O)c3)ncc2F)cc1 [III-4, N2-(3-Aminosulfonyl)phenyl-N4-(4-cyanomethyl)phenyl-5-fluoro-2,4-pyrimidinediamine]
